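All cell lines were grown in 96-well plates and treated with compound for 48 hours. Abbreviation: GI50, concentration required for 50% inhibition of growth. The concentration for full growth arrest is given as TGI.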
Tests used:
Test in all cases: NCI tumour cell line growth inhibition, 48 h
OVCAR-8 ovarian = system: OVCAR-8 ovarian
SF-268 CNS = system: SF-268 CNS
HCC-2998 colon = system: HCC-2998 colon
HL-60(TB) leukemia = system: HL-60(TB) leukemia
HOP-92 NSCLC = system: HOP-92 NSCLC
SK-MEL-5 melanoma = system: SK-MEL-5 melanoma
M14 melanoma = system: M14 melanoma
RXF 393 renal = system: RXF 393 renal
SF-295 CNS = system: SF-295 CNS
RPMI-8226 leukemia = system: RPMI-8226 leukemia
ACHN renal = system: ACHN renal
IGROV1 ovarian = system: IGROV1 ovarian
OVCAR-4 ovarian = system: OVCAR-4 ovarian
SNB-19 CNS = system: SNB-19 CNS
NCI/ADR-RES ovarian = system: NCI/ADR-RES ovarian
TK-10 renal = system: TK-10 renal
SN12C renal = system: SN12C renal
SK-OV-3 ovarian = system: SK-OV-3 ovarian
NCI-H460 lung = system: NCI-H460 lung
MOLT-4 leukemia = system: MOLT-4 leukemia
UACC-62 melanoma = system: UACC-62 melanoma
SK-MEL-2 melanoma = system: SK-MEL-2 melanoma
K-562 leukemia = system: K-562 leukemia
HOP-62 NSCLC = system: HOP-62 NSCLC
A498 renal = system: A498 renal
OVCAR-5 ovarian = system: OVCAR-5 ovarian
NCI-H23 lung = system: NCI-H23 lung
U251 CNS = system: U251 CNS
MCF7 breast = system: MCF7 breast
EKVX NSCLC = system: EKVX NSCLC
SW-620 colon = system: SW-620 colon
NCI-H226 lung = system: NCI-H226 lung
HS 578T breast = system: HS 578T breast
786-0 renal = system: 786-0 renal
MDA-MB-435 = system: MDA-MB-435
UACC-257 melanoma = system: UACC-257 melanoma
NCI-H522 lung = system: NCI-H522 lung
OVCAR-3 ovarian = system: OVCAR-3 ovarian
MDA-MB-231 breast = system: MDA-MB-231 breast
UO-31 renal = system: UO-31 renal
KM12 colon = system: KM12 colon
SK-MEL-28 melanoma = system: SK-MEL-28 melanoma
SR leukemia = system: SR leukemia
HCT-15 colon = system: HCT-15 colon
HT29 colon = system: HT29 colon
COLO 205 colon = system: COLO 205 colon
CAKI-1 renal = system: CAKI-1 renal
MALME-3M melanoma = system: MALME-3M melanoma
BT-549 breast = system: BT-549 breast
LOX IMVI melanoma = system: LOX IMVI melanoma
SF-539 CNS = system: SF-539 CNS
DU-145 prostate = system: DU-145 prostate
T-47D breast = system: T-47D breast
CCRF-CEM leukemia = system: CCRF-CEM leukemia
A549 NSCLC = system: A549 NSCLC
PC-3 prostate = system: PC-3 prostate
HCT-116 colon = system: HCT-116 colon
SNB-75 CNS = system: SNB-75 CNS
MDA-N = system: MDA-N

Structure (SMILES): NCCn1c(=O)[nH]c(=O)[nH]c1=S
- GI50 (OVCAR-8 ovarian): > 100 µM
- TGI (OVCAR-8 ovarian): > 100 µM
- GI50 (SF-268 CNS): > 100 µM
- TGI (SF-268 CNS): > 100 µM
- GI50 (HCC-2998 colon): > 100 µM
- TGI (HCC-2998 colon): > 100 µM
- GI50 (HL-60(TB) leukemia): > 100 µM
- TGI (HL-60(TB) leukemia): > 100 µM
- GI50 (HOP-92 NSCLC): > 100 µM
- TGI (HOP-92 NSCLC): > 100 µM
- GI50 (SK-MEL-5 melanoma): > 100 µM
- TGI (SK-MEL-5 melanoma): > 100 µM
- GI50 (M14 melanoma): > 100 µM
- TGI (M14 melanoma): > 100 µM
- GI50 (RXF 393 renal): > 100 µM
- TGI (RXF 393 renal): > 100 µM
- GI50 (SF-295 CNS): > 100 µM
- TGI (SF-295 CNS): > 100 µM
- GI50 (RPMI-8226 leukemia): > 100 µM
- TGI (RPMI-8226 leukemia): > 100 µM
- GI50 (ACHN renal): > 100 µM
- TGI (ACHN renal): > 100 µM
- GI50 (IGROV1 ovarian): > 100 µM
- TGI (IGROV1 ovarian): > 100 µM
- GI50 (OVCAR-4 ovarian): > 100 µM
- TGI (OVCAR-4 ovarian): > 100 µM
- GI50 (SNB-19 CNS): > 100 µM
- TGI (SNB-19 CNS): > 100 µM
- GI50 (NCI/ADR-RES ovarian): > 100 µM
- TGI (NCI/ADR-RES ovarian): > 100 µM
- GI50 (TK-10 renal): > 100 µM
- TGI (TK-10 renal): > 100 µM
- GI50 (SN12C renal): > 100 µM
- TGI (SN12C renal): > 100 µM
- GI50 (SK-OV-3 ovarian): > 100 µM
- TGI (SK-OV-3 ovarian): > 100 µM
- GI50 (NCI-H460 lung): 39.2 µM
- TGI (NCI-H460 lung): > 100 µM
- GI50 (MOLT-4 leukemia): > 100 µM
- TGI (MOLT-4 leukemia): > 100 µM
- GI50 (UACC-62 melanoma): > 100 µM
- TGI (UACC-62 melanoma): > 100 µM
- GI50 (SK-MEL-2 melanoma): > 100 µM
- TGI (SK-MEL-2 melanoma): > 100 µM
- GI50 (K-562 leukemia): 54.1 µM
- TGI (K-562 leukemia): > 100 µM
- GI50 (HOP-62 NSCLC): > 100 µM
- TGI (HOP-62 NSCLC): > 100 µM
- GI50 (A498 renal): > 100 µM
- TGI (A498 renal): > 100 µM
- GI50 (OVCAR-5 ovarian): > 100 µM
- TGI (OVCAR-5 ovarian): > 100 µM
- GI50 (NCI-H23 lung): > 100 µM
- TGI (NCI-H23 lung): > 100 µM
- GI50 (U251 CNS): > 100 µM
- TGI (U251 CNS): > 100 µM
- GI50 (MCF7 breast): 61.1 µM
- TGI (MCF7 breast): > 100 µM
- GI50 (EKVX NSCLC): > 100 µM
- TGI (EKVX NSCLC): > 100 µM
- GI50 (SW-620 colon): > 100 µM
- TGI (SW-620 colon): > 100 µM
- GI50 (NCI-H226 lung): > 100 µM
- TGI (NCI-H226 lung): > 100 µM
- GI50 (HS 578T breast): > 100 µM
- TGI (HS 578T breast): > 100 µM
- GI50 (786-0 renal): > 100 µM
- TGI (786-0 renal): > 100 µM
- GI50 (MDA-MB-435): > 100 µM
- TGI (MDA-MB-435): > 100 µM
- GI50 (UACC-257 melanoma): > 100 µM
- TGI (UACC-257 melanoma): > 100 µM
- GI50 (NCI-H522 lung): > 100 µM
- TGI (NCI-H522 lung): > 100 µM
- GI50 (OVCAR-3 ovarian): > 100 µM
- TGI (OVCAR-3 ovarian): > 100 µM
- GI50 (MDA-MB-231 breast): > 100 µM
- TGI (MDA-MB-231 breast): > 100 µM
- GI50 (UO-31 renal): > 100 µM
- TGI (UO-31 renal): > 100 µM
- GI50 (KM12 colon): > 100 µM
- TGI (KM12 colon): > 100 µM
- GI50 (SK-MEL-28 melanoma): > 100 µM
- TGI (SK-MEL-28 melanoma): > 100 µM
- GI50 (SR leukemia): > 100 µM
- TGI (SR leukemia): > 100 µM
- GI50 (HCT-15 colon): 96.7 µM
- TGI (HCT-15 colon): > 100 µM
- GI50 (HT29 colon): > 100 µM
- TGI (HT29 colon): > 100 µM
- GI50 (COLO 205 colon): > 100 µM
- TGI (COLO 205 colon): > 100 µM
- GI50 (CAKI-1 renal): > 100 µM
- TGI (CAKI-1 renal): > 100 µM
- GI50 (MALME-3M melanoma): > 100 µM
- TGI (MALME-3M melanoma): > 100 µM
- GI50 (BT-549 breast): > 100 µM
- TGI (BT-549 breast): > 100 µM
- GI50 (LOX IMVI melanoma): > 100 µM
- TGI (LOX IMVI melanoma): > 100 µM
- GI50 (SF-539 CNS): > 100 µM
- TGI (SF-539 CNS): > 100 µM
- GI50 (DU-145 prostate): > 100 µM
- TGI (DU-145 prostate): > 100 µM
- GI50 (T-47D breast): > 100 µM
- TGI (T-47D breast): > 100 µM
- GI50 (CCRF-CEM leukemia): > 100 µM
- TGI (CCRF-CEM leukemia): > 100 µM
- GI50 (A549 NSCLC): > 100 µM
- TGI (A549 NSCLC): > 100 µM
- GI50 (PC-3 prostate): > 100 µM
- TGI (PC-3 prostate): > 100 µM
- GI50 (HCT-116 colon): > 100 µM
- TGI (HCT-116 colon): > 100 µM
- GI50 (SNB-75 CNS): > 100 µM
- TGI (SNB-75 CNS): > 100 µM

Structure (SMILES): CCOC(=O)C(=[N+]=[N-])C(=O)C1(C(=O)OCC)CCN(C(=O)c2ccccc2)C1=O (stereo not given)
- TGI (OVCAR-8 ovarian): > 100 µM
- TGI (SF-268 CNS): > 100 µM
- TGI (HL-60(TB) leukemia): > 100 µM
- TGI (HOP-92 NSCLC): > 100 µM
- TGI (SK-MEL-5 melanoma): > 100 µM
- TGI (M14 melanoma): > 100 µM
- TGI (RXF 393 renal): > 100 µM
- TGI (SF-295 CNS): > 100 µM
- TGI (ACHN renal): > 100 µM
- TGI (IGROV1 ovarian): > 100 µM
- TGI (OVCAR-4 ovarian): > 100 µM
- TGI (SNB-19 CNS): > 100 µM
- TGI (NCI/ADR-RES ovarian): > 100 µM
- TGI (TK-10 renal): > 100 µM
- TGI (SN12C renal): > 100 µM
- TGI (SK-OV-3 ovarian): > 100 µM
- TGI (NCI-H460 lung): > 100 µM
- TGI (MOLT-4 leukemia): > 100 µM
- TGI (UACC-62 melanoma): > 100 µM
- TGI (SK-MEL-2 melanoma): > 100 µM
- TGI (HOP-62 NSCLC): > 100 µM
- TGI (A498 renal): > 100 µM
- TGI (OVCAR-5 ovarian): > 100 µM
- TGI (NCI-H23 lung): > 100 µM
- TGI (MCF7 breast): > 100 µM
- TGI (EKVX NSCLC): > 100 µM
- TGI (NCI-H226 lung): > 100 µM
- TGI (HS 578T breast): > 100 µM
- TGI (786-0 renal): > 100 µM
- TGI (UACC-257 melanoma): > 100 µM
- TGI (NCI-H522 lung): > 100 µM
- TGI (MDA-MB-231 breast): > 100 µM
- TGI (UO-31 renal): > 100 µM
- TGI (KM12 colon): > 100 µM
- TGI (HCT-15 colon): > 100 µM
- TGI (HT29 colon): > 100 µM
- TGI (COLO 205 colon): > 100 µM
- TGI (CAKI-1 renal): > 100 µM
- TGI (MALME-3M melanoma): > 100 µM
- TGI (LOX IMVI melanoma): > 100 µM
- TGI (SF-539 CNS): > 100 µM
- TGI (MDA-N): > 100 µM
- TGI (DU-145 prostate): > 100 µM
- TGI (T-47D breast): > 100 µM
- TGI (CCRF-CEM leukemia): > 100 µM
- TGI (A549 NSCLC): > 100 µM
- TGI (PC-3 prostate): > 100 µM
- TGI (HCT-116 colon): > 100 µM
- TGI (SNB-75 CNS): > 100 µM
